# Experimental data reported in patent US7235679B2, “Crystals of a vitamin D derivative and a method for the preparation thereof” (Chugai Seiyaku Kabushiki Kaisha, priority 1996, dated 2007).
# Key:
# Assay type in all cases: physicochemical
# [1] = Stability test of ED-71: HPLC quantitative assay (survivability)
# Method: (§1) Amorphous and crystalline ED-71 compounds were tested for stability at 10, 25 and […]. To estimate the stability, HPLC quantitative assay and absorbance and purity measurements were utilized. The purity was expressed as peak area ratio in percentage in HPLC (% P.A.R.). The test was carried out by using the following procedures:
# (§2) About 2 mg portions of each of the amorphous and crystalline samples are precisely weighed into transparent 10 ml test tubes each having screw cap, individually.
# (§3) The test tubes are purged with argon using a vacuum desiccator and a glove box. This purging procedure is not applied to the test tubes indicated as “1 M (air)” in the tables below.
# (§4) The test tubes in groups are fixed in thermostatic baths which are respectively controlled at the above temperatures and allowed to stand in the dark. After one (1 W) or two (2 W) weeks or one month (1 M), the test tubes are removed from the baths and subjected to the following assay and measurements:
# 5 ml of absolute ethanol is precisely added to the test tube to form a sample solution. 1 ml of the sample solution and 1 ml of an internal standard solution are both precisely added to another test tube and the resulting mixture is diluted with methylene chloride to give a whole volume of 20 ml. This diluted solution is designated solution 1. The internal standard solution is formed by dissolving 2-aminopyrimidine in methanol to a concentration of 0.6 mg/ml.
# Next, both of 1 ml of another standard solution for quantitative assay which is formed by dissolving crystalline ED-71 in absolute ethanol to a concentration of 0.4 mg/ml and 1 ml of the internal standard solution are precisely added to another test tube and the resulting mixture is diluted with methylene chloride to give a whole volume of 20 ml. This diluted solution is designated solution 2.
# HPLC is carried out using 20 μl of each of solutions 1 and 2. For each solution, an area ratio of the peak of ED-71 to the peak of the internal standard substance is determined from the HPLC data. The ED-71 content in the sample is determined from the ratio of the area ratio for solution 1 to that for solution 2.
# Survivability (%) is determined by dividing the ED-71 content thus obtained by ED-71 content in the same sample but prior to the above treatment. • HPLC conditions used: • Column: YMC A-004SIL (4.6×300 mm) • Mobile phase: methylene chloride/methanol mixture (95/5) • Flow rate: 1 ml/min • Detection: at UV 265 nm. (3) Absorbance Measurement
# [2] = Stability test of ED-71: absorbance measurement at 265 nm (E 1%); conditions: absorbance at 265 nm
# Method: as §1, §2, §3, §4
# 1 ml of the sample solution as prepared in “HPLC quantitative assay” above is diluted with absolute ethanol to give a whole volume of 10 ml and this diluted solution is then measured for the absorbance at 265 nm using a ultraviolet spectrophotometer. The absorbance is converted into E 1% value which is derived from Lambert-Beer Law and the conversion is made according to the following equation: E1%=A/cb wherein A is absorbance, c is concentration in g/100 ml and b is length of optical path in cm across the test solution, which is commonly 1. (4) Purity Measurement
# [3] = Stability test of ED-71: purity measurement using reverse phase HPLC; conditions: for Purity Measurement Using Reverse Phase HPLC, ED-71 peak / Purity Measurement Using Reverse Phase HPLC, Other peaks / Purity Measurement Using Reverse Phase HPLC, Pre Form peak: 265 nm
# Method: as §1, §2, §3, §4
# HPLC is carried out using 25 μl of the sample solution as prepared in “HPLC quantitative assay” above. • HPLC conditions used: • Column: Inertsil ODS-2 (5×250 mm) • Mobile phase: acetonitrile/water mixture (55/45) • Flow rate: 1 ml/min • Detection: at UV 265 and 220 nm.
smiles,measurement,setting,value
"C=C1/C(=C\C=C2/CCC[C@]3(C)[C@@H]([C@H](C)CCCC(C)(C)O)CC[C@@H]23)C[C@@H](O)[C@@H](OCCCO)[C@@H]1O [Crys., 1α,25-dihydroxy-2β-(3-hydroxypropoxy)vitamin D3]",HPLC Quantitative Assay (% Survivability),"[1]; 10° C., 1 M (air), dark",95.0%
same,HPLC Quantitative Assay (% Survivability),"[1]; 10° C., 1 M, argon, dark",97.0%
same,HPLC Quantitative Assay (% Survivability),"[1]; 10° C., 2 W, argon, dark",96.8%
same,HPLC Quantitative Assay (% Survivability),"[1]; 10° C., time 0",100%
same,HPLC Quantitative Assay (% Survivability),"[1]; 25° C., 1 W, argon, dark",99.4%
same,HPLC Quantitative Assay (% Survivability),"[1]; 25° C., 2 W, argon, dark",98.8%
same,HPLC Quantitative Assay (% Survivability),"[1]; 25° C., time 0",100%
same,HPLC Quantitative Assay (% Survivability),"[1]; 40° C., 1 W, argon, dark",99.5%
same,HPLC Quantitative Assay (% Survivability),"[1]; 40° C., 2 W, argon, dark",102.9%
same,HPLC Quantitative Assay (% Survivability),"[1]; 40° C., time 0",100%
same,E 1%,"[2]; 10° C., 1 M (air), dark",341.7
same,E 1%,"[2]; 10° C., 1 M, argon, dark",342.7
same,E 1%,"[2]; 10° C., 2 W, argon, dark",343.8
same,E 1%,"[2]; 10° C., time 0",359.2
same,E 1%,"[2]; 25° C., 1 W, argon, dark",349.5
same,E 1%,"[2]; 25° C., 2 W, argon, dark",341.6
same,E 1%,"[2]; 25° C., time 0",359.2
same,E 1%,"[2]; 40° C., 1 W, argon, dark",349.8
same,E 1%,"[2]; 40° C., 2 W, argon, dark",348.7
same,E 1%,"[2]; 40° C., time 0",359.2
same,"220 nm (%), ED-71 peak","[3]; 10° C., 1 M (air), dark",97.09%
same,"220 nm (%), Other peaks","[3]; 10° C., 1 M (air), dark",1.82%
same,"220 nm (%), Pre Form peak","[3]; 10° C., 1 M (air), dark",1.09%
same,"220 nm (%), ED-71 peak","[3]; 10° C., 1 M, argon, dark",97.44%
same,"220 nm (%), Other peaks","[3]; 10° C., 1 M, argon, dark",1.51%
same,"220 nm (%), Pre Form peak","[3]; 10° C., 1 M, argon, dark",1.05%
same,"220 nm (%), ED-71 peak","[3]; 10° C., 2 W, argon, dark",97.91%
same,"220 nm (%), Other peaks","[3]; 10° C., 2 W, argon, dark",1.09%
same,"220 nm (%), Pre Form peak","[3]; 10° C., 2 W, argon, dark",1.01%
same,"220 nm (%), ED-71 peak","[3]; 10° C., time 0",97.44%
same,"220 nm (%), Other peaks","[3]; 10° C., time 0",2.04%
same,"220 nm (%), Pre Form peak","[3]; 10° C., time 0",0.52%
same,"220 nm (%), ED-71 peak","[3]; 25° C., 1 W, argon, dark",98.17%
same,"220 nm (%), Other peaks","[3]; 25° C., 1 W, argon, dark",1.40%
same,"220 nm (%), Pre Form peak","[3]; 25° C., 1 W, argon, dark",0.44%
same,"220 nm (%), ED-71 peak","[3]; 25° C., 2 W, argon, dark",97.56%
same,"220 nm (%), Other peaks","[3]; 25° C., 2 W, argon, dark",1.43%
same,"220 nm (%), Pre Form peak","[3]; 25° C., 2 W, argon, dark",1.01%
same,"220 nm (%), ED-71 peak","[3]; 25° C., time 0",97.44%
same,"220 nm (%), Other peaks","[3]; 25° C., time 0",2.04%
same,"220 nm (%), Pre Form peak","[3]; 25° C., time 0",0.52%
same,"220 nm (%), ED-71 peak","[3]; 40° C., 1 W, argon, dark",98.18%
same,"220 nm (%), Other peaks","[3]; 40° C., 1 W, argon, dark",1.35%
same,"220 nm (%), Pre Form peak","[3]; 40° C., 1 W, argon, dark",0.47%
same,"220 nm (%), ED-71 peak","[3]; 40° C., 2 W, argon, dark",97.65%
same,"220 nm (%), Other peaks","[3]; 40° C., 2 W, argon, dark",1.33%
same,"220 nm (%), Pre Form peak","[3]; 40° C., 2 W, argon, dark",1.02%
same,"220 nm (%), ED-71 peak","[3]; 40° C., time 0",97.44%
same,"220 nm (%), Other peaks","[3]; 40° C., time 0",2.04%
same,"220 nm (%), Pre Form peak","[3]; 40° C., time 0",0.52%
same,"Purity Measurement Using Reverse Phase HPLC, ED-71 peak","[3]; 10° C., 1 M (air), dark",98.72 % P.A.R
same,"Purity Measurement Using Reverse Phase HPLC, Other peaks","[3]; 10° C., 1 M (air), dark",0.42 % P.A.R
same,"Purity Measurement Using Reverse Phase HPLC, Pre Form peak","[3]; 10° C., 1 M (air), dark",0.86 % P.A.R
same,"Purity Measurement Using Reverse Phase HPLC, ED-71 peak","[3]; 10° C., 1 M, argon, dark",98.77 % P.A.R
same,"Purity Measurement Using Reverse Phase HPLC, Other peaks","[3]; 10° C., 1 M, argon, dark",0.37 % P.A.R
same,"Purity Measurement Using Reverse Phase HPLC, Pre Form peak","[3]; 10° C., 1 M, argon, dark",0.86 % P.A.R
same,"Purity Measurement Using Reverse Phase HPLC, ED-71 peak","[3]; 10° C., 2 W, argon, dark",98.84 % P.A.R
same,"Purity Measurement Using Reverse Phase HPLC, Other peaks","[3]; 10° C., 2 W, argon, dark",0.32 % P.A.R
same,"Purity Measurement Using Reverse Phase HPLC, Pre Form peak","[3]; 10° C., 2 W, argon, dark",0.83 % P.A.R
same,"Purity Measurement Using Reverse Phase HPLC, ED-71 peak","[3]; 10° C., time 0",99.04 % P.A.R
same,"Purity Measurement Using Reverse Phase HPLC, Other peaks","[3]; 10° C., time 0",0.60 % P.A.R
same,"Purity Measurement Using Reverse Phase HPLC, Pre Form peak","[3]; 10° C., time 0",0.36 % P.A.R
same,"Purity Measurement Using Reverse Phase HPLC, ED-71 peak","[3]; 25° C., 1 W, argon, dark",99.35 % P.A.R
same,"Purity Measurement Using Reverse Phase HPLC, Other peaks","[3]; 25° C., 1 W, argon, dark",0.38 % P.A.R
same,"Purity Measurement Using Reverse Phase HPLC, Pre Form peak","[3]; 25° C., 1 W, argon, dark",0.28 % P.A.R
same,"Purity Measurement Using Reverse Phase HPLC, ED-71 peak","[3]; 25° C., 2 W, argon, dark",98.78 % P.A.R
same,"Purity Measurement Using Reverse Phase HPLC, Other peaks","[3]; 25° C., 2 W, argon, dark",0.37 % P.A.R
same,"Purity Measurement Using Reverse Phase HPLC, Pre Form peak","[3]; 25° C., 2 W, argon, dark",0.85 % P.A.R
same,"Purity Measurement Using Reverse Phase HPLC, ED-71 peak","[3]; 25° C., time 0",99.04 % P.A.R
same,"Purity Measurement Using Reverse Phase HPLC, Other peaks","[3]; 25° C., time 0",0.60 % P.A.R
same,"Purity Measurement Using Reverse Phase HPLC, Pre Form peak","[3]; 25° C., time 0",0.36 % P.A.R
same,"Purity Measurement Using Reverse Phase HPLC, ED-71 peak","[3]; 40° C., 1 W, argon, dark",99.40 % P.A.R
same,"Purity Measurement Using Reverse Phase HPLC, Other peaks","[3]; 40° C., 1 W, argon, dark",0.31 % P.A.R
same,"Purity Measurement Using Reverse Phase HPLC, Pre Form peak","[3]; 40° C., 1 W, argon, dark",0.29 % P.A.R
same,"Purity Measurement Using Reverse Phase HPLC, ED-71 peak","[3]; 40° C., 2 W, argon, dark",98.75 % P.A.R
same,"Purity Measurement Using Reverse Phase HPLC, Other peaks","[3]; 40° C., 2 W, argon, dark",0.40 % P.A.R
same,"Purity Measurement Using Reverse Phase HPLC, Pre Form peak","[3]; 40° C., 2 W, argon, dark",0.85 % P.A.R
same,"Purity Measurement Using Reverse Phase HPLC, ED-71 peak","[3]; 40° C., time 0",99.04 % P.A.R
same,"Purity Measurement Using Reverse Phase HPLC, Other peaks","[3]; 40° C., time 0",0.60 % P.A.R
same,"Purity Measurement Using Reverse Phase HPLC, Pre Form peak","[3]; 40° C., time 0",0.36 % P.A.R
